Assay results reported in US12077503B2, “Substituted cyclic amides and their use as herbicides” (FMC CORPORATION, priority 2015, dated 2024).

Assays:
Assay in all cases: Test D preemergence
Format in all cases: in vivo
Conditions in all cases: scale 0 to 100
[1] = tested on: field violet (Viola arvensis)
Procedure, shortened: (§1)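 Test chemicals, formulated in a non-phytotoxic solvent blend including surfactant, are applied preemergence to seeded silt loam soil. Response is judged visually against controls after approximately 21 d in a controlled environment, on a scale where 0 is no effect and 100 is complete control.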

[2] = tested on: blackgrass (Alopecurus myosuroides)
Procedure, shortened: as §1

[3] = tested on: speedwell (bird's-eye speedwell, Veronica persica)
Procedure, shortened: as §1

[4] = tested on: bluegrass (annual bluegrass, Poa annua)
Procedure, shortened: as §1

[5] = tested on: foxtail, green (green foxtail, Setaria viridis)
Procedure, shortened: as §1

[6] = tested on: chickweed (common chickweed, Stellaria media)
Procedure, shortened: as §1

[7] = tested on: canarygrass (littleseed canarygrass, Phalaris minor)
Procedure, shortened: as §1

[8] = tested on: buckwheat, wild (wild buckwheat, Polygonum convolvulus)
Procedure, shortened: as §1

[9] = tested on: lambsquarters (Chenopodium album)
Procedure, shortened: as §1

[10] = tested on: barley, winter (winter barley Hordeum vulgare)
Procedure, shortened: as §1

[11] = tested on: chamomile (scentless chamomile, Matricaria inodora)
Procedure, shortened: as §1

[12] = tested on: oat, wild (wild oat, Avena fatua)
Procedure, shortened: as §1

[13] = tested on: pigweed (Amaranthus retroflexus)
Procedure, shortened: as §1

[14] = tested on: oilseed rape (Brassica napus)
Procedure, shortened: as §1

[15] = tested on: Russian thistle (Salsola kali)
Procedure, shortened: as §1

[16] = tested on: wheat, spring (spring wheat, Triticum aestivum)
Procedure, shortened: as §1

[17] = tested on: Galium (catchweed bedstraw, Galium aparine)
Procedure, shortened: as §1

[18] = tested on: mustard, wild (wild mustard, Sinapis arvensis)
Procedure, shortened: as §1

[19] = tested on: ryegrass, Italian (Italian ryegrass, Lolium multiflorum)
Procedure, shortened: as §1

[20] = tested on: barley, spring (spring barley, Hordeum vulgare)
Procedure, shortened: as §1

[21] = tested on: windgrass (Apera spica-venti)
Procedure, shortened: as §1

[22] = tested on: field poppy (Papaver rhoeas)
Procedure, shortened: as §1

`CN1C[C@H](c2ccc(C(F)(F)F)cc2)[C@@H](C(=O)Nc2cccc(F)c2F)C1=O` [Compound 623, (3S,4S)—N-(2,3-difluorophenyl)-1-methyl-2-oxo-4-[4-(trifluoromethyl)phenyl]-3-pyrrolidinecarboxamide] was tested, and the “Plant response rating: Field Violet” value ([1]; 31 g ai/ha) was 0, the “Plant response rating: Field Violet” value ([1]; 62 g ai/ha) was 0 and the “Plant response rating: Field Violet” value ([1]; 125 g ai/ha) was 10. For the same compound, the “Plant response rating: Field Violet” value ([1]; 250 g ai/ha) was 15, the “Plant response rating: Blackgrass” value ([2]; 31 g ai/ha) was 30 and the “Plant response rating: Blackgrass” value ([2]; 62 g ai/ha) was 40. For the same compound, the “Plant response rating: Blackgrass” value ([2]; 125 g ai/ha) was 45, the “Plant response rating: Blackgrass” value ([2]; 250 g ai/ha) was 70 and the “Plant response rating: Speedwell” value ([3]; 31 g ai/ha) was 95. For the same compound, the “Plant response rating: Speedwell” value ([3]; 62 g ai/ha) was 100, the “Plant response rating: Speedwell” value ([3]; 125 g ai/ha) was 100 and the “Plant response rating: Speedwell” value ([3]; 250 g ai/ha) was 90. The “Plant response rating: Bluegrass” value ([4]; 31 g ai/ha) was 25, the “Plant response rating: Bluegrass” value ([4]; 62 g ai/ha) was 65 and the “Plant response rating: Bluegrass” value ([4]; 125 g ai/ha) was 70. The “Plant response rating: Bluegrass” value ([4]; 250 g ai/ha) was 85, the “Plant response rating: Foxtail, Green” value ([5]; 31 g ai/ha) was 95 and the “Plant response rating: Foxtail, Green” value ([5]; 62 g ai/ha) was 98. The “Plant response rating: Foxtail, Green” value ([5]; 125 g ai/ha) was 98, the “Plant response rating: Foxtail, Green” value ([5]; 250 g ai/ha) was 98 and the “Plant response rating: Chickweed” value ([6]; 31 g ai/ha) was 65. For the same compound, the “Plant response rating: Chickweed” value ([6]; 62 g ai/ha) was 95, the “Plant response rating: Chickweed” value ([6]; 125 g ai/ha) was 95 and the “Plant response rating: Chickweed” value ([6]; 250 g ai/ha) was 95. The “Plant response rating: Canarygrass” value ([7]; 31 g ai/ha) was 25, the “Plant response rating: Canarygrass” value ([7]; 62 g ai/ha) was 70 and the “Plant response rating: Canarygrass” value ([7]; 125 g ai/ha) was 85. The “Plant response rating: Canarygrass” value ([7]; 250 g ai/ha) was 85, the “Plant response rating: Buckwheat, Wild” value ([8]; 31 g ai/ha) was 0 and the “Plant response rating: Buckwheat, Wild” value ([8]; 62 g ai/ha) was 10. The “Plant response rating: Buckwheat, Wild” value ([8]; 125 g ai/ha) was 15, the “Plant response rating: Buckwheat, Wild” value ([8]; 250 g ai/ha) was 45 and the “Plant response rating: Lambsquarters” value ([9]; 31 g ai/ha) was 55. For the same compound, the “Plant response rating: Lambsquarters” value ([9]; 62 g ai/ha) was 60, the “Plant response rating: Lambsquarters” value ([9]; 125 g ai/ha) was 80 and the “Plant response rating: Lambsquarters” value ([9]; 250 g ai/ha) was 95. For the same compound, the “Plant response rating: Barley, Winter” value ([10]; 31 g ai/ha) was 5, the “Plant response rating: Barley, Winter” value ([10]; 62 g ai/ha) was 10 and the “Plant response rating: Barley, Winter” value ([10]; 125 g ai/ha) was 40. The “Plant response rating: Barley, Winter” value ([10]; 250 g ai/ha) was 65, the “Plant response rating: Chamomile” value ([11]; 31 g ai/ha) was 20 and the “Plant response rating: Chamomile” value ([11]; 62 g ai/ha) was 80. The “Plant response rating: Chamomile” value ([11]; 125 g ai/ha) was 85, the “Plant response rating: Chamomile” value ([11]; 250 g ai/ha) was 100 and the “Plant response rating: Oat, Wild” value ([12]; 31 g ai/ha) was 25. For the same compound, the “Plant response rating: Oat, Wild” value ([12]; 62 g ai/ha) was 30, the “Plant response rating: Oat, Wild” value ([12]; 125 g ai/ha) was 55 and the “Plant response rating: Oat, Wild” value ([12]; 250 g ai/ha) was 60. For the same compound, the “Plant response rating: Pigweed” value ([13]; 31 g ai/ha) was 75, the “Plant response rating: Pigweed” value ([13]; 62 g ai/ha) was 95 and the “Plant response rating: Pigweed” value ([13]; 125 g ai/ha) was 95. For the same compound, the “Plant response rating: Pigweed” value ([13]; 250 g ai/ha) was 100, the “Plant response rating: Oilseed Rape” value ([14]; 31 g ai/ha) was 15 and the “Plant response rating: Oilseed Rape” value ([14]; 62 g ai/ha) was 20. For the same compound, the “Plant response rating: Oilseed Rape” value ([14]; 125 g ai/ha) was 25, the “Plant response rating: Oilseed Rape” value ([14]; 250 g ai/ha) was 75 and the “Plant response rating: Russian Thistle” value ([15]; 31 g ai/ha) was 15. For the same compound, the “Plant response rating: Russian Thistle” value ([15]; 62 g ai/ha) was 25, the “Plant response rating: Russian Thistle” value ([15]; 125 g ai/ha) was 60 and the “Plant response rating: Russian Thistle” value ([15]; 250 g ai/ha) was 70. For the same compound, the “Plant response rating: Wheat, Spring” value ([16]; 31 g ai/ha) was 5, the “Plant response rating: Wheat, Spring” value ([16]; 62 g ai/ha) was 10 and the “Plant response rating: Wheat, Spring” value ([16]; 125 g ai/ha) was 20. For the same compound, the “Plant response rating: Wheat, Spring” value ([16]; 250 g ai/ha) was 45, the “Plant response rating: Galium” value ([17]; 31 g ai/ha) was 0 and the “Plant response rating: Galium” value ([17]; 62 g ai/ha) was 5. For the same compound, the “Plant response rating: Galium” value ([17]; 125 g ai/ha) was 15, the “Plant response rating: Galium” value ([17]; 250 g ai/ha) was 80 and the “Plant response rating: Mustard, Wild” value ([18]; 31 g ai/ha) was 10. For the same compound, the “Plant response rating: Mustard, Wild” value ([18]; 62 g ai/ha) was 15, the “Plant response rating: Mustard, Wild” value ([18]; 125 g ai/ha) was 85 and the “Plant response rating: Mustard, Wild” value ([18]; 250 g ai/ha) was 85. The “Plant response rating: Ryegrass, Italian” value ([19]; 31 g ai/ha) was 0, the “Plant response rating: Ryegrass, Italian” value ([19]; 62 g ai/ha) was 15 and the “Plant response rating: Ryegrass, Italian” value ([19]; 125 g ai/ha) was 40. The “Plant response rating: Ryegrass, Italian” value ([19]; 250 g ai/ha) was 65, the “Plant response rating: Barley, Spring” value ([20]; 31 g ai/ha) was 5 and the “Plant response rating: Barley, Spring” value ([20]; 62 g ai/ha) was 15. For the same compound, the “Plant response rating: Barley, Spring” value ([20]; 125 g ai/ha) was 35, the “Plant response rating: Barley, Spring” value ([20]; 250 g ai/ha) was 65 and the “Plant response rating: Windgrass” value ([21]; 31 g ai/ha) was 85. For the same compound, the “Plant response rating: Windgrass” value ([21]; 62 g ai/ha) was 90, the “Plant response rating: Windgrass” value ([21]; 125 g ai/ha) was 95 and the “Plant response rating: Windgrass” value ([21]; 250 g ai/ha) was 95. The “Plant response rating: Field Poppy” value ([22]; 31 g ai/ha) was 80, the “Plant response rating: Field Poppy” value ([22]; 62 g ai/ha) was 80 and the “Plant response rating: Field Poppy” value ([22]; 125 g ai/ha) was 85. For the same compound, the “Plant response rating: Field Poppy” value ([22]; 250 g ai/ha) was 100.
